The target of one assay is T1, 5-HT2A receptor (Homo sapiens, UniProt P28223).
T1 construct: expressed in transfected cells; host or cells: HEK293
Put plainly: 5-HT2A receptor binding, [3H]ketanserin competition (counter screen). The note with it: read-out: Receptor Affinity: pK Values 5-HT2A receptor (converted). On the procedure: 5-HT2A receptors were labelled with [^3H]ketanserin in human cortex, in HEK293 cells expressing a cloned human 5-HT2A receptor and in HEK293 cells expressing the rat 5-HT2A receptor. For competition binding studies the ligand concentration was approximately 0.1 nM. For saturation binding studies concentrations of radioligand ranged from 0.01 nM to 2.0 nM. Assays were conducted in 0.5 ml of assay buffer (50 mM Tris-HCl, 4 mM calcium chloride, 0.1 % by weight ascorbic acid) (pH 7.4 at 4°C). Non-specifc binding was defined with […] unlabelled ketanserin. After a 60 min incubation at 32°C, membranes were harvested onto filters treated with 0.1 % by weight of polyethylenimine and the bound radioactivity was determined. Competition radioligand binding data was analyzed using a four parameter logistic equation and iterative curve-fitting techniques to obtain estimates of the IC50 and Hill slope. Kd values, determined from saturation binding studies were then used to calculate inhibition dissociation constants (Ki).
In general terms: The purpose of a counterscreen is to sort out artefacts and off-target activity.

In another assay the target is T2, human H1 receptor (Homo sapiens, UniProt P35367).
T2 construct: expressed in transfected cells; host or cells: COS-7 (transient)
Put plainly: Cloned human H1 receptor binding assay, [3H]-mepyramine. The note with it: COS-7 cells transfected with human H1 receptor, read-out: Receptor Affinity: pK Values H1 receptor (converted). On the procedure:
COS-7 cells were transiently transfected with an expression plasmid pCineohH1, pCineohH2, pCineohH3 and pCineohH4 encoding the human Histamine H1, H2. H3 or H4 receptor, respectively. Transfected cells were harvested after 48 h, homogenized in ice-cold 50 mM Na2/potassium phosphate buffer (pH 7.4) and used for radioligand binding studies. Cell homogenates (40 - 50 µg of protein) were incubated for 30 min at 25°C in 50 mM Na2/potassium phosphate buffer (pH 7.4) in 400 µl with the various concentrations of either [^3H]-mepyramine, [^3H]-thiotidine, [^3H]-R-α-Methylhistamine, and [^3H]-pyramilamine for cells expressing recombinant human H1, H2. H3 and H4 receptors, respectively. The nonspecific binding was defined in the presence of 1 µM mianserin. In displacement studies, cell homogenated were incubated either with 1 nM [^3H]-mepyramine, 15 nM [^3H]-thiotidine, 0.5 nM [^3H]-R-α-Methylhistamine, or 15 nM [^3H]-pyramilamine and increasing concentrations of competing ligands. The incubations were stopped by rapid dilution with 3 ml of ice-cold 50 mM Na2/potassium phosphate buffer (pH 7.4). The bound radioactivity was seperated by filatration through Whatman GF/C filters that had been treated with 0.3 % polyethyleneimine. Filters were washed twice in 3 ml of buffer and radioactivity retained on the filters was measured by liquid scinitllation counting. The concentration of 1-methyl-4-(3-ethoxy-9H-thioxanthene-9-ylidene)-piperidine producing 50% inhibition of binding (IC50) was determined using iterative curve fitting techniques.

Another assay addresses T3, 5-HT2C receptor (Homo sapiens, UniProt P28335).
T3 construct: expressed in transfected cells; host or cells: Cos-7
T3 sequence (P28335 33-458): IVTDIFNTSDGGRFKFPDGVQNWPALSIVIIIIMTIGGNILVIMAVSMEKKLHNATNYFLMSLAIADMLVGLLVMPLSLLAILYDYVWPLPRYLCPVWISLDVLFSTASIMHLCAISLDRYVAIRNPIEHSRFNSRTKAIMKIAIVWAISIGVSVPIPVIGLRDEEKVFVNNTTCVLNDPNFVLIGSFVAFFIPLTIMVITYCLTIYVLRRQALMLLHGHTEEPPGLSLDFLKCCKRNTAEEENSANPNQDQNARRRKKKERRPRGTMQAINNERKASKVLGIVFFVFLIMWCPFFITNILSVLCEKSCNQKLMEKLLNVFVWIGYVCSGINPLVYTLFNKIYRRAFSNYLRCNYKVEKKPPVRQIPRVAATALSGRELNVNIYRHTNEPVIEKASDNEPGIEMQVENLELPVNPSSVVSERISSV
Put plainly: 5-HT2C receptor binding, [3H]mesulergine competition (counter screen). The note with it: read-out: Receptor Affinity: pK Values 5NT2C receptor (converted). On the procedure:
5-HT2C receptors were labelled in choroid plexus, Cos-7 cells expressing the human 5-HT2C receptor and in NIH-3T3 expressing the […]. Assays were conducted as described for the 5-HT2A receptor except that the radioligand was [^3H]mesulergine. The radioligand concentration for competition studies was approximately 0.2 nM while for saturation binding studies the concentration ranged from 0.1 to 18 nM. Non-specific binding was defined with 10 µM unlabelled mesulergine. Competition radioligand binding data was analyzed using a four parameter logistic equation and iterative curve-fitting techniques to obtain estimates of the IC50 and Hill slope. Kd values, determined from saturation binding studies were then used to calculate inhibition dissociation constants (Ki).

Another assay addresses T4, human 5-HT2B receptor (Homo sapiens, UniProt P41595).
T4 construct: expressed in transfected cells; host or cells: HEK 293 (transient)
The assay can be described thus: Cloned human 5-HT2B receptor binding assay, [3H]-5HT. The note with it: HEK 293 cells transfected with human 5-HT2B receptor, read-out: Receptor Affinity: pK Values 5HT2B receptor (converted). On the procedure:
The following describes an in vitro binding assay utilizing cloned 5-HT2B receptors radiolabelled with [^3H]-5HT. HEK 293 cells transiently transfected with an expression plasmid pXMD1-hu2B encoding the human 5-HT2B receptor (see Schmuck et al., FEBS Lett., 1994, 342, 85-90) were used as described previously (Schmuck et al., Eur. J. Pharmacol., 1996, 8, 959-967). Two days after transfection cells were harvested, pelleted at 500g for 5 min at 4°C, gently resuspended in ice-cold buffer1 (50 mM TRIS pH 7.7, 4 mM CaCl2) and homogenized using a Polytron PT 1200 tissue homogenizer (position 6 for 30 s). Cells were pelleted at 50,000g, 4°C for 10 min, washed with buffer1 and pelleted again. The final pellet was resuspended in incubation buffer (50 mM TRIS pH 7.7, 4 mM CaCl2, 10 µM pargyline and 0.1 % by weight ascorbic acid). The binding assay consisted of 300 µl of membrane suspension (protein concentration = 0.3 to 0.5 mg/ml), 150 µl of competing drug and 50 µl of [^3H]5-HT at a final concentration of 4 to 5 nM. The mixture was incubated at 37°C for 30 min and the assay terminated by rapid filtration and two washing steps with 5 ml of cold 20 mM Tris-HCl pH = 7.5, and 154 mM NaCl over Whatman GFB filters. Filters were counted by liquid scintillation. Non-specific binding was determined in the presence of an excess of 5-HT (100 µM). Bound radioligand represented less than 1 % of free radioligand. In competition experiments, specific binding represented about 60 % of total binding. Results expressed as pKi values are shown in Table 1 Human 5-HT2B receptors were labelled in HEK293 cells as described above, except that the radioligand was [^3H]-5HT and that the assay buffer contained pargyline in a concentration of […] and 0.1 % by weight of ascorbic acid. For competition binding studies the radioligand concentration was approximately 0.4 nM while for saturation binding studies the concentration of [^3H]-5HT ranged from 0.05 to 8 nM. Non-specific binding was defined with […]. Incubations were for 120 min at 4°C. Competition radioligand binding data was analyzed using a four parameter logistic equation and iterative curve-fitting techniques to obtain estimates of the IC50 and Hill slope. Kd values, determined from saturation binding studies were then used to calculate inhibition dissociation constants (Ki).

T1 sequence (P28223 whole entry): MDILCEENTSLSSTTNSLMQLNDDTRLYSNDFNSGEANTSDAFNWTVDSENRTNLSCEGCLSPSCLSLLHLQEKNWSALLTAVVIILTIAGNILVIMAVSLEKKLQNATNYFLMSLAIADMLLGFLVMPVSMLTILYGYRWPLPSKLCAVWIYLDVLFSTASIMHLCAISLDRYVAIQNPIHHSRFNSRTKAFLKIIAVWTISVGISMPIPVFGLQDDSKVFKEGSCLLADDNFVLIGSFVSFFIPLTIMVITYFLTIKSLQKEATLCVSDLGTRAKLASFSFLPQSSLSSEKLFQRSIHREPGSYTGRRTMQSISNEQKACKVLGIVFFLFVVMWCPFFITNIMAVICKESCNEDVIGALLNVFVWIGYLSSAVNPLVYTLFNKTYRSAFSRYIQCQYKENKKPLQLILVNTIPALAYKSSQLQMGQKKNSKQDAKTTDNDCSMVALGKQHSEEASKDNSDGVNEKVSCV
T2 sequence (P35367 whole entry): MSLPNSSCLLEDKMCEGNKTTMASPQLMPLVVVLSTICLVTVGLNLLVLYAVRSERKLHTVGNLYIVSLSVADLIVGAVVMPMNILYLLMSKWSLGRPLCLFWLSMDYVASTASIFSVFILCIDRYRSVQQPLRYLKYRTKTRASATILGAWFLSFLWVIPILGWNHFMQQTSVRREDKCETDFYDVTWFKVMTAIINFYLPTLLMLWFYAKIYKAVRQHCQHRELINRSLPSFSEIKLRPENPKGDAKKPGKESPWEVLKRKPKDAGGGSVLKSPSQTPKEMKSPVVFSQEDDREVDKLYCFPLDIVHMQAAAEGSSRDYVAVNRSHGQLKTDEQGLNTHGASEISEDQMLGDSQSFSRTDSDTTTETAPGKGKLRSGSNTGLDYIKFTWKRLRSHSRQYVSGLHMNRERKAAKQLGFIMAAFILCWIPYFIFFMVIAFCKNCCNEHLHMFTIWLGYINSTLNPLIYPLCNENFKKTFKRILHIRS
T4 sequence (P41595 whole entry): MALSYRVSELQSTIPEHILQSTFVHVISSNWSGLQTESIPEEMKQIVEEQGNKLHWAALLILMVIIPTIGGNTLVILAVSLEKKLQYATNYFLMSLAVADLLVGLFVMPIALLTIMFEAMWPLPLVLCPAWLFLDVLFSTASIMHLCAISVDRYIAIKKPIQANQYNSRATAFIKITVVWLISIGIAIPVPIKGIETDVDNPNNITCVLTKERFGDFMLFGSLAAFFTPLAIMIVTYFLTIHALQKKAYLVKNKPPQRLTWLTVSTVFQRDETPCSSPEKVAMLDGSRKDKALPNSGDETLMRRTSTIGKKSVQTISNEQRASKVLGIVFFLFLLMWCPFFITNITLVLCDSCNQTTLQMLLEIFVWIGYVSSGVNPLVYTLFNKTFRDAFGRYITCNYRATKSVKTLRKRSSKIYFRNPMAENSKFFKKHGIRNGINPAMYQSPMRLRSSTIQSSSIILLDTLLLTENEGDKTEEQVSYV

As for `COc1ccc2c(c1)Sc1cccc(OC)c1C2=C1CCN(C)CC1` [4-(6-Methoxy-1-methoxy-thioxanthen-9-yliden)-1-methyl-piperidine], the Ki at 5-HT2A receptor was 0.0427 nM; at human H1 receptor it was 0.129 nM; on 5-HT2C receptor, 1.55 nM; on human 5-HT2B receptor, 0.00871 nM.

In the case of `CCOc1ccc2c(c1)Nc1ccccc1C2=C1CCN(C)CC1` [3-Ethoxy-9-(1-methyl-piperidine-4-ylidene)-9,10-dihydro-acridine], the Ki on 5-HT2A receptor is 1.17 nM; at human H1 receptor, 29.5 nM; at 5-HT2C receptor it was 37.2 nM; at human 5-HT2B receptor, 0.741 nM.

For the compound `CCOc1ccc2c(c1)Sc1cccc(OC)c1C2=C1CCN(C)CC1` [4-(6-Ethoxy-1-methoxy-thioxanthen-9-yliden)-1-methyl-piperidine], the Ki at 5-HT2A receptor is 1.02 nM; on human H1 receptor, 3.72 nM; on 5-HT2C receptor it was 17 nM; at human 5-HT2B receptor, 0.0447 nM.

Regarding `CCOc1ccc2c(c1)Sc1cccc(O)c1C2=C1CCN(C)CC1` [4-(6-Ethoxy-1-hydroxy-thioxanthen-9-yliden)-1-methyl-piperidine], the Ki is 1.51 nM at 5-HT2A receptor, 36.3 nM on human H1 receptor, 13.8 nM at 5-HT2C receptor and 0.0115 nM on human 5-HT2B receptor.

In the case of `COc1cccc2c1C(=C1CCN(C)CC1)c1ccc(C(C)C)cc1S2` [4-(6-Isopropyl-1-methoxy-thioxanthen-9-yliden)-1-methyl-piperidine], the Ki on 5-HT2A receptor is 0.741 nM; on human H1 receptor, 10.5 nM; at 5-HT2C receptor, 16.2 nM; on human 5-HT2B receptor, 0.17 nM.

Consider `CC(C)c1ccc2c(c1)Sc1cccc(O)c1C2=C1CCN(C)CC1` [4-(6-Isopropyl-1-hydroxy-thioxanthen-9-yliden)-1-methyl-piperidine], for which the Ki at 5-HT2A receptor was 0.776 nM; on human H1 receptor, 35.5 nM; on 5-HT2C receptor, 30.2 nM; on human 5-HT2B receptor it was 0.12 nM.

The record behind these values is EP1438307B1, “DERIVATIVES OF 4-(THIO- OR SELENOXANTHENE-9-YLIDENE)-PIPERIDINE OR ACRIDINE AND ITS USE AS A SELECTIVE 5-HT2B RECEPTOR ANTAGONIST” (Biofrontera Pharmaceuticals GmbH, priority 2001, dated 2003).
